The results in this text go back to US20230117034A1, “PYRAZOLOTRIAZINES” (Bayer Aktiengesellschaft, priority 2019, published 2023).

For test [1], the system named is BRCA1 mRNA expression in MDA-MB-231 cells. Description: qRT-PCR assay: BRCA1 mRNA expression in MDA-MB-231. It is filed as cell-based, human. The following applies: Homo sapiens, MDA-MB-231, Inhibition of BRCA1 mRNA expression in MDA-MB-231 cells; median; read-out: RTqPCR-MDA-MB-231, IC50, BRCA1 (median). The procedure, abridged:
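Human breast cancer cells, 200,000/well, were treated with test agents for 24 h without interruption after a 24 h settling period. Gene expression came from qPCR on cDNA made from 600 ng RNA, relative to GAPDH.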

Test [2] addresses T1, CDK9/CycT1 (Homo sapiens, UniProt P50750).
T1 construct: Recombinant full-length His-tagged human CDK9 and CycT1; purchased Life Technologies PV4131; host or cells: insect cells
Description: CDK9/CycT1 high ATP kinase assay (TR-FRET, 2 mM ATP). It is filed as biochemical. Conditions: 2 mM ATP (high ATP); median; read-out: CDK9/CyclinT1, 2 mM ATP (high ATP), IC50 (median). The procedure, abridged:
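Full-length His-tagged human CDK9/CycT1 (insect cell, ~0.5 μg/mL) preincubated 15 min at 22 °C with compound in Tris pH 8.0, MgCl2, DTT buffer before reaction with biotinylated peptide substrate at high ATP (2 mM).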
For orientation: TR-FRET usually uses a lanthanide donor and a delayed reading to cut background.

For test [3], the target named is T2, CDK12 (nuclear staining in CAL-120 cells) (Homo sapiens, UniProt Q9NYV4).
T2 construct: endogenous in cells; host or cells: CAL-120 human breast cancer cells (DSMZ ACC 459)
T2 sequence (Q9NYV4 whole entry): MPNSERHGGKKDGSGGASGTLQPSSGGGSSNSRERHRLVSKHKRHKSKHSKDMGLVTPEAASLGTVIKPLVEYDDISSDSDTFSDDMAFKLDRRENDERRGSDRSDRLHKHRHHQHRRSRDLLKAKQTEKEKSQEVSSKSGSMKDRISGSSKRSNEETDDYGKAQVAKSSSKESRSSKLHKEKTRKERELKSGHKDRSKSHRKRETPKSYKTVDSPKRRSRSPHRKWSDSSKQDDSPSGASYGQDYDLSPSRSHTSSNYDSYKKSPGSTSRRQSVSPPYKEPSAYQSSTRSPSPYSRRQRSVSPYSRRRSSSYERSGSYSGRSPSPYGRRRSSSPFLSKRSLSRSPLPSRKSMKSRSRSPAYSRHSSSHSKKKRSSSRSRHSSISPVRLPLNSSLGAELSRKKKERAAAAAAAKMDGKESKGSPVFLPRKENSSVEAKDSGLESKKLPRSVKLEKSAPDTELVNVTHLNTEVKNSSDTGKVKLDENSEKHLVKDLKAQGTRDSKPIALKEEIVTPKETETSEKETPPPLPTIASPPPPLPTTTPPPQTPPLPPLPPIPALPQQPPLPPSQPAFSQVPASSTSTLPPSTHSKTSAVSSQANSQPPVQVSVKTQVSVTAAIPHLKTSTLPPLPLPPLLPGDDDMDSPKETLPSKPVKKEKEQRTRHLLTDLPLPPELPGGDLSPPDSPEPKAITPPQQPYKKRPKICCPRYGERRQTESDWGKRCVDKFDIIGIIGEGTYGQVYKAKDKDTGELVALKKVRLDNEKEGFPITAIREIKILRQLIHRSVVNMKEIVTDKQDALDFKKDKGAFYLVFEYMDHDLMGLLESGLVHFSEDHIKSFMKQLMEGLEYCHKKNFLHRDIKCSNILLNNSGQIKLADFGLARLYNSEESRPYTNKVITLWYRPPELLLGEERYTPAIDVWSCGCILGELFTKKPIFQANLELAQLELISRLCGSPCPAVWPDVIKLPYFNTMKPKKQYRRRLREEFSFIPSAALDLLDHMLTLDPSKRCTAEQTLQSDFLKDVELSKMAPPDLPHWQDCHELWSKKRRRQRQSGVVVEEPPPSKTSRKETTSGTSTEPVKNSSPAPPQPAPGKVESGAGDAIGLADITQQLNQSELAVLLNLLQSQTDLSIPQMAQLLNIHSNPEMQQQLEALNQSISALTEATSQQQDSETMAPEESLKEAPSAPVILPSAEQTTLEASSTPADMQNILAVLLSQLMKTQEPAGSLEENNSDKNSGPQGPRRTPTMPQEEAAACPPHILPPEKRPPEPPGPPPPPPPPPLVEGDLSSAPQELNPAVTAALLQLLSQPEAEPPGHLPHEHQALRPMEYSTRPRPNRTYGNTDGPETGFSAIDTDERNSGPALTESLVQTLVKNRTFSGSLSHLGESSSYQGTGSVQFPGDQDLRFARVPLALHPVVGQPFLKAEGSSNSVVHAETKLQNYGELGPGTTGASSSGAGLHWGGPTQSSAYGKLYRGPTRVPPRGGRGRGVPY
T2 sequence (O75909 whole entry partner): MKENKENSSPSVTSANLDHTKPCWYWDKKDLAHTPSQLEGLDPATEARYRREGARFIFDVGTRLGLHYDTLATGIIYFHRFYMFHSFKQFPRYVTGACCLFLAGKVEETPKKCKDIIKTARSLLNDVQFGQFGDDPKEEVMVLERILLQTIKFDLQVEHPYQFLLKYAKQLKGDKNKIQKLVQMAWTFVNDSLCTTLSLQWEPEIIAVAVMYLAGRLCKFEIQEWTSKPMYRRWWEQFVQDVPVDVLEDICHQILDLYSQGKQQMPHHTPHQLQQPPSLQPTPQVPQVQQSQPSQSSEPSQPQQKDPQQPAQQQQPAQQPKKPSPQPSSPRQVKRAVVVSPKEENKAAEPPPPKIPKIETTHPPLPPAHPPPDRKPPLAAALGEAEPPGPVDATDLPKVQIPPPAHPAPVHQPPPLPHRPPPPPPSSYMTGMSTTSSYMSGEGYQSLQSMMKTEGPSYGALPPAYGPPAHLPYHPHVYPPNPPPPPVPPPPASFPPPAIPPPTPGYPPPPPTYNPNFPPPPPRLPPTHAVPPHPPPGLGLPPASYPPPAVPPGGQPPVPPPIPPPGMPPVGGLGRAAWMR
In words: CDK12 nuclear protein level: immunofluorescence/high content analysis (CAL-120). Type of test: cell-based. Conditions: for DC50: CAL-120 cells, 24 h, immunofluorescence, 50% reduction of nuclear CDK12 staining intensity, median, read-out: CDK12 degradation IF, DC50- [mol/l] (median); for (IC50 CDK12 high ATP) to (Degradation DC50 CDK12) ratio: ratio of IC50 CDK12 high ATP kinase assay to DC50 CDK12 degradation (IF, CAL-120). The essentials:
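DC50 is the degrader concentration that halves nuclear CDK12 immunofluorescence relative to controls, measured by high-content imaging. CAL-120 cells were exposed to compound for 24 h at 37 °C before PFA fixation, and signal was normalized to DMSO and control wells.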

Each structure is given as a SMILES string.

T1 sequence (P50750 whole entry): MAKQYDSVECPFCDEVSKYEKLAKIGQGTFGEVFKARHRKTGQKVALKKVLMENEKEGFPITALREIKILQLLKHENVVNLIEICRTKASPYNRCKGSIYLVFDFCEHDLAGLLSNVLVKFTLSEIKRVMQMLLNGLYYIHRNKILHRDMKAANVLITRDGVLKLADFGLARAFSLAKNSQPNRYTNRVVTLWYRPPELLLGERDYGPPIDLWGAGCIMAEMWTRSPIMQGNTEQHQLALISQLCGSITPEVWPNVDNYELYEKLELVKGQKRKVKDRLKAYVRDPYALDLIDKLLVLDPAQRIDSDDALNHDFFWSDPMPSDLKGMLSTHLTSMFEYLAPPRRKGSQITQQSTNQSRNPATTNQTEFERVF
T1 sequence (O60563 whole entry partner): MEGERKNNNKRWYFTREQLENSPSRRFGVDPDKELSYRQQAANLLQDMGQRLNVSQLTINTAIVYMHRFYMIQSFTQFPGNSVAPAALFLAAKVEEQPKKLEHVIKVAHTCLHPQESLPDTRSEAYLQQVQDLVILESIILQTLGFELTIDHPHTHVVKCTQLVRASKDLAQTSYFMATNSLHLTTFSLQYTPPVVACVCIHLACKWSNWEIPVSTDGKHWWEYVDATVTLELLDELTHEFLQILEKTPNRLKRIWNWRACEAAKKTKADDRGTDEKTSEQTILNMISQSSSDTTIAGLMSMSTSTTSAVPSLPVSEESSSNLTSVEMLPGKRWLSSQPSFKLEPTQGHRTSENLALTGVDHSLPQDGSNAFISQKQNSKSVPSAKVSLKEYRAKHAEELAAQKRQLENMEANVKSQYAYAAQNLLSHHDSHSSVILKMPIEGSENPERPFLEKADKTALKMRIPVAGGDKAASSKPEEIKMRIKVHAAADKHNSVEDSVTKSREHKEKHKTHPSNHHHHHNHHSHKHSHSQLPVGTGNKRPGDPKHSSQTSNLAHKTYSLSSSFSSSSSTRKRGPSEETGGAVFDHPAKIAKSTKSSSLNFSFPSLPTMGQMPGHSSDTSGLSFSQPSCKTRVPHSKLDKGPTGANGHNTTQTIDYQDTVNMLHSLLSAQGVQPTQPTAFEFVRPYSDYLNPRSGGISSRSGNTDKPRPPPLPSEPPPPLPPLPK

Regarding `Brc1cnn2c(NCc3nnc(-c4ccccc4)[nH]3)nc(N3CC4(COC4)C3)nc12` [Example 65, 8-bromo-2-(2-oxa-6-azaspiro[3.3]heptan-6-yl)-N-[(5-phenyl-4H-1,2,4-triazol-3-yl)methyl]pyrazolo[1,5-a][1,3,5]triazin-4-amine], the IC50 in test [1] is 14.4 nM; in test [2], above 5710 nM. Also, the DC50 in test [3] was 4.15 nM. In test [3], the “(IC50 CDK12 high ATP) to (Degradation DC50 CDK12) ratio” value is recorded as 245.

On to `CCc1cnn2c(NCc3nc4c(F)c(F)ccc4[nH]3)nc(N3CCN(C)CC3)nc12.O=CO` [Example 435, formic acid N-[(4,5-difluoro-1H-benzimidazol-2-yl)methyl]-8-ethyl-2-(4-methylpiperazin-1-yl)pyrazolo[1,5-a][1,3,5]triazin-4-amine], for which, in test [1], the IC50 was found to be 0.959 nM. Moreover, the IC50 in test [2] is above 20000 nM. Further, in test [3], the DC50 is 0.591 nM and the “(IC50 CDK12 high ATP) to (Degradation DC50 CDK12) ratio” value is 9674.

Consider `Cc1ccccc1-c1cnc(CNc2nc(N3CCOCC3)nc3c(Br)cnn23)[nH]1` [Example 85, 8-bromo-N-{[5-(2-methylphenyl)-1H-imidazol-2-yl]methyl}-2-(morpholin-4-yl)pyrazolo[1,5-a][1,3,5]triazin-4-amine], for which, in test [1], the IC50 is 18.3 nM. In addition, in test [2], the IC50 is above 10800 nM. Besides, in test [3], the DC50 came out at 5.57 nM and the “(IC50 CDK12 high ATP) to (Degradation DC50 CDK12) ratio” value stood at 1137.

Consider `Brc1cnn2c(NCc3nnc(-c4ccccc4)[nH]3)nc(N3CCCC3)nc12` [Example 64, 8-bromo-N-[(5-phenyl-4H-1,2,4-triazol-3-yl)methyl]-2-(pyrrolidin-1-yl)pyrazolo[1,5-a][1,3,5]triazin-4-amine], for which, in test [1], the IC50 turned out to be 27.9 nM. The IC50 in test [2] stood at 3560 nM. Moreover, in test [3], the DC50 is 12.5 nM and the “(IC50 CDK12 high ATP) to (Degradation DC50 CDK12) ratio” value is given as 440.

Turning to `CC(C)c1cnn2c(NCc3nc4ccccc4[nH]3)nc(N3CCOCC3)nc12` [Example 1, N-[(1H-benzimidazol-2-yl)methyl]-2-(morpholin-4-yl)-8-(propan-2-yl)pyrazolo[1,5-a][1,3,5]triazin-4-amine], the IC50 in test [1] was 16.6 nM. The IC50 in test [2] is above 20000 nM. Moreover, in test [3], the DC50 amounted to 11.1 nM and the “(IC50 CDK12 high ATP) to (Degradation DC50 CDK12) ratio” value was 537.

Take `Clc1ccc(-c2cnc(CNc3nc(N4CCOCC4)nc4c(Br)cnn34)[nH]2)cc1` [Example 72, 8-bromo-N-{[5-(4-chlorophenyl)-1H-imidazol-2-yl]methyl}-2-(morpholin-4-yl)pyrazolo[1,5-a][1,3,5]triazin-4-amine]: in test [1], the IC50 came out at 38.6 nM. In addition, in test [2], the IC50 was 6720 nM. For the same molecule, in test [3], the DC50 was determined as 10 nM and the “(IC50 CDK12 high ATP) to (Degradation DC50 CDK12) ratio” value came to 55.

On to `CC(C)c1cnn2c(NCc3nc4ccccc4[nH]3)nc(N3CCN(C)CC3)nc12` [Example 2, N-[(1H-benzimidazol-2-yl)methyl]-2-(4-methylpiperazin-1-yl)-8-(propan-2-yl)pyrazolo[1,5-a][1,3,5]triazin-4-amine], for which, in test [1], the IC50 turned out to be 20.8 nM. The IC50 in test [2] was above 20000 nM. Moreover, in test [3], the DC50 is 8.46 nM and the “(IC50 CDK12 high ATP) to (Degradation DC50 CDK12) ratio” value is on record as above 2365.

As for `Brc1cnn2c(NCc3ncc(-c4ccccn4)[nH]3)nc(N3CCOCC3)nc12` [Example 90, 8-bromo-2-(morpholin-4-yl)-N-{[5-(pyridin-2-yl)-1H-imidazol-2-yl]methyl}pyrazolo[1,5-a][1,3,5]triazin-4-amine], in test [1], the IC50 came out at 13.7 nM. The IC50 in test [2] was found to be 9350 nM. Further, in test [3], the DC50 was 4.05 nM and the “(IC50 CDK12 high ATP) to (Degradation DC50 CDK12) ratio” value is listed as 1092.

`Fc1cccc(-c2cnn3c(NCc4nc5ccccc5[nH]4)nc(N4CCOCC4)nc23)c1` [Example 91, N-[(1H-benzimidazol-2-yl)methyl]-8-(3-fluorophenyl)-2-(morpholin-4-yl)pyrazolo[1,5-a][1,3,5]triazin-4-amine]: in test [1], the IC50 is 85.5 nM. The IC50 in test [2] was above 20000 nM. For the same molecule, in test [3], the DC50 came to 42.8 nM and the “(IC50 CDK12 high ATP) to (Degradation DC50 CDK12) ratio” value is reported as above 133.

As to `COC(=O)C1CCN(c2nc(NCc3nc4ccccc4[nH]3)n3ncc(Br)c3n2)CC1` [Example 63, methyl 1-(4-{[(1H-benzimidazol-2-yl)methyl]amino}-8-bromopyrazolo[1,5-a][1,3,5]triazin-2-yl)piperidine-4-carboxylate], in test [1], the IC50 was found to be 341 nM. Also, the IC50 in test [2] was above 20000 nM. For the same molecule, in test [3], the DC50 amounted to 20.7 nM and the “(IC50 CDK12 high ATP) to (Degradation DC50 CDK12) ratio” value worked out at 556.

As to `c1ccc2[nH]c(CNc3nc(N4CCOCC4)nc4c(C5CC5)cnn34)nc2c1` [Example 92, N-[(1H-benzimidazol-2-yl)methyl]-8-cyclopropyl-2-(morpholin-4-yl)pyrazolo[1,5-a][1,3,5]triazin-4-amine], the IC50 in test [1] stood at 13.3 nM. Also, the IC50 in test [2] is above 20000 nM. Besides, in test [3], the DC50 is 2.36 nM and the “(IC50 CDK12 high ATP) to (Degradation DC50 CDK12) ratio” value was found to be 1378.

As for `CC(C)c1cnn2c(NCc3nc4ccccc4[nH]3)nc(N3CCOC(C)(C)C3)nc12` [Example 12, N-[(1H-benzimidazol-2-yl)methyl]-2-(2,2-dimethylmorpholin-4-yl)-8-(propan-2-yl)pyrazolo[1,5-a][1,3,5]triazin-4-amine], the IC50 in test [1] amounted to 117 nM. The IC50 in test [2] was above 20000 nM. In test [3], the DC50 was 42.7 nM and the “(IC50 CDK12 high ATP) to (Degradation DC50 CDK12) ratio” value is reported as 399.

Regarding `Brc1cnn2c(NCc3ncc(-c4cccnc4)[nH]3)nc(N3CCOCC3)nc12` [Example 84, 8-bromo-2-(morpholin-4-yl)-N-{[5-(pyridin-3-yl)-1H-imidazol-2-yl]methyl}pyrazolo[1,5-a][1,3,5]triazin-4-amine], the IC50 in test [1] was 118 nM; in test [2] it was 3440 nM. Besides, the DC50 in test [3] was 21.2 nM. For the same molecule, the “(IC50 CDK12 high ATP) to (Degradation DC50 CDK12) ratio” value in test [3] worked out at 98.

Consider `CN1CCN(c2nc(NCc3nc4cc(C(F)(F)F)ccc4[nH]3)n3ncc(C4CC4)c3n2)CC1` [Example 313, 8-cyclopropyl-2-(4-methylpiperazin-1-yl)-N-{[5-(trifluoromethyl)-1H-benzimidazol-2-yl]methyl}pyrazolo[1,5-a][1,3,5]triazin-4-amine], for which, in test [1], the IC50 is 22.1 nM. In test [2], the IC50 was above 20000 nM. In test [3], the DC50 came to 26.8 nM and the “(IC50 CDK12 high ATP) to (Degradation DC50 CDK12) ratio” value is on record as 679.

In the case of `C[C@@H]1CN(c2nc(NCc3nc4ccccc4[nH]3)n3ncc(Br)c3n2)C[C@H](C)O1` [Example 73, N-[(1H-benzimidazol-2-yl)methyl]-8-bromo-2-[(2R,6S)-2,6-dimethylmorpholin-4-yl]pyrazolo[1,5-a][1,3,5]triazin-4-amine], the IC50 in test [1] came to 49.5 nM. Moreover, the IC50 in test [2] worked out at 9380 nM. In test [3], the DC50 was found to be 5.15 nM and the “(IC50 CDK12 high ATP) to (Degradation DC50 CDK12) ratio” value was 129.

As for `OC[C@@H]1CCCCN1c1nc(NCc2nnc(-c3ccccc3)[nH]2)n2ncc(Br)c2n1` [Example 70, [(2S)-1-(8-bromo-4-{[(5-phenyl-4H-1,2,4-triazol-3-yl)methyl]amino}pyrazolo[1,5-a][1,3,5]triazin-2-yl)piperidin-2-yl]methanol], the IC50 in test [1] came to 55.9 nM. The IC50 in test [2] is 569 nM. Also, in test [3], the DC50 stood at 7.9 nM and the “(IC50 CDK12 high ATP) to (Degradation DC50 CDK12) ratio” value was 79.

On to `COC1CCN(c2nc(NCc3nc4ccccc4[nH]3)n3ncc(Br)c3n2)CC1` [Example 62, N-[(1H-benzimidazol-2-yl)methyl]-8-bromo-2-(4-methoxypiperidin-1-yl)pyrazolo[1,5-a][1,3,5]triazin-4-amine], for which the IC50 in test [1] was 37.7 nM; in test [2] it was above 20000 nM. Also, the DC50 in test [3] is 10 nM. The “(IC50 CDK12 high ATP) to (Degradation DC50 CDK12) ratio” value in test [3] was 569.

In the case of `Fc1ccc(-c2cnc(CNc3nc(N4CCOCC4)nc4c(Br)cnn34)[nH]2)cc1` [Example 66, 8-bromo-N-{[5-(4-fluorophenyl)-1H-imidazol-2-yl]methyl}-2-(morpholin-4-yl)pyrazolo[1,5-a][1,3,5]triazin-4-amine], the IC50 in test [1] was 624 nM. Also, the IC50 in test [2] is 4480 nM. In test [3], the DC50 was found to be 130 nM and the “(IC50 CDK12 high ATP) to (Degradation DC50 CDK12) ratio” value was above 44.

As for `OC[C@H]1CCCCN1c1nc(NCc2nnc(-c3ccccc3)[nH]2)n2ncc(Br)c2n1` [Example 71, [(2R)-1-(8-bromo-4-{[(5-phenyl-4H-1,2,4-triazol-3-yl)methyl]amino}pyrazolo[1,5-a][1,3,5]triazin-2-yl)piperidin-2-yl]methanol], in test [1], the IC50 was 21.1 nM. For the same molecule, the IC50 in test [2] stood at 1760 nM. For the same molecule, in test [3], the DC50 worked out at 4.34 nM and the “(IC50 CDK12 high ATP) to (Degradation DC50 CDK12) ratio” value is 998.
